Like-named read-outs stand apart in the source and are kept apart here.
Key:
male CD-1 mice = conditions: mouse, in vivo
male C57Bl/6 mice = assay: Mouse formalin paw assay for inflammatory pain; format: in vivo; conditions: SC administration 30 min prior; morphine 5 mg/kg; compound 5 0.3, 1 or 3 mg/kg
[1] = biological target: human recombinant dopamine D1 receptor (Homo sapiens, UniProt P21728); assay: Dopamine D1 receptor binding, [3H]SCH 23390 displacement; conditions: for inhibition at 0.1 µM: read-out: D1 % inhibition
[2] = biological target: T1, human recombinant 5-HT transporter (SERT) (Homo sapiens, UniProt P31645); assay: biochemical; format: binding; conditions: for inhibition at 0.1 µM / inhibition at 0.2 µM: read-out: SERT % inhibition
T1 construct: host or cells: CHO-S / SERT (h), cell membrane homogenates

[3] = biological target: human recombinant dopamine D2 short receptor (Homo sapiens, UniProt P14416); assay: Dopamine D2 receptor binding, [3H]7-OH-DPAT displacement; conditions: for inhibition at 0.1 µM: read-out: D2 % inhibition
[4] = biological target: T2, human full-length recombinant serotonin 5-HT2A receptors (Homo sapiens, UniProt P28223); assay: biochemical; format: binding; conditions: for inhibition at 0.1 µM: read-out: 5-HT2A % inhibition
T2 construct: human full-length recombinant serotonin 5-HT2A receptors expressed in HEK-293E cells

[5] = inhibition at 100 nM, NI = no inhibition

T1 sequence (P31645 whole entry): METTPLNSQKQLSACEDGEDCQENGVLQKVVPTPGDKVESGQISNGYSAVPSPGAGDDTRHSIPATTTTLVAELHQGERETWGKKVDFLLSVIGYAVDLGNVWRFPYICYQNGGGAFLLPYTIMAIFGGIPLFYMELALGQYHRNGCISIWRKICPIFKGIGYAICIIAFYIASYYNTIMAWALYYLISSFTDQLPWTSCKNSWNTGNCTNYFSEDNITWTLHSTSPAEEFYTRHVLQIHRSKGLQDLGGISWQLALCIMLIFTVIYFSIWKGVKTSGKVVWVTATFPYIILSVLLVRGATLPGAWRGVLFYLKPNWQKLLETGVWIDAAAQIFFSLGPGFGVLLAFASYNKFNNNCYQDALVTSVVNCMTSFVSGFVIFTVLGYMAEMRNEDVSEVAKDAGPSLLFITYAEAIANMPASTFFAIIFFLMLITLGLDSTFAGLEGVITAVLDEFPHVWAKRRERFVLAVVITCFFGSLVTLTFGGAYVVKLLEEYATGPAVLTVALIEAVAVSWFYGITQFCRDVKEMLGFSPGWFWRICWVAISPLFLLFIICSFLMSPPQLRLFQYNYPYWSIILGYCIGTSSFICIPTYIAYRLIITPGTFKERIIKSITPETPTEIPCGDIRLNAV
human recombinant dopamine D2 short receptor, sequence (P14416 1-414 isoform P14416-2): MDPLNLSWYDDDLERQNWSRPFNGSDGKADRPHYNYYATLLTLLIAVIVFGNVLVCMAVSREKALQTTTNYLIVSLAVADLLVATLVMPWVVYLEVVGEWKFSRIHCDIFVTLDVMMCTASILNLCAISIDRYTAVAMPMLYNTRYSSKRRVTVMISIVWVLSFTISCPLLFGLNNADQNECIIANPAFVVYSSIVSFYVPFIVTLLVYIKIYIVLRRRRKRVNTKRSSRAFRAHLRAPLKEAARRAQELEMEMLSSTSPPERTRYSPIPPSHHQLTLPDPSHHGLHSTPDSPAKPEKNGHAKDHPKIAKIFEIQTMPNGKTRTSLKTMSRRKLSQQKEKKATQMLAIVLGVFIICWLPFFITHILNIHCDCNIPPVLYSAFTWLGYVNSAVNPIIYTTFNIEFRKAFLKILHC
human recombinant dopamine D1 receptor, sequence (P21728 whole entry): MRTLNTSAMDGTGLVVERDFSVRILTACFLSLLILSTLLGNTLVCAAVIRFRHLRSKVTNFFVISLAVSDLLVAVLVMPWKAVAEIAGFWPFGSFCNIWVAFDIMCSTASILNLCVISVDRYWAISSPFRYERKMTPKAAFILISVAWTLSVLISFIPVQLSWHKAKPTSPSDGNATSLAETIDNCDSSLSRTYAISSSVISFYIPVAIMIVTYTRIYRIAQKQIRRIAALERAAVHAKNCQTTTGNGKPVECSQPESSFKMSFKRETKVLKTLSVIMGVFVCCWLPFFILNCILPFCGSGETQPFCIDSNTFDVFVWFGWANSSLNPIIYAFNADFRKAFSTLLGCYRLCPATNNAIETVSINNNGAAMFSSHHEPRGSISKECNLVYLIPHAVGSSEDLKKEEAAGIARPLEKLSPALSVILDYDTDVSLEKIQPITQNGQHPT
T2 sequence (P28223 whole entry): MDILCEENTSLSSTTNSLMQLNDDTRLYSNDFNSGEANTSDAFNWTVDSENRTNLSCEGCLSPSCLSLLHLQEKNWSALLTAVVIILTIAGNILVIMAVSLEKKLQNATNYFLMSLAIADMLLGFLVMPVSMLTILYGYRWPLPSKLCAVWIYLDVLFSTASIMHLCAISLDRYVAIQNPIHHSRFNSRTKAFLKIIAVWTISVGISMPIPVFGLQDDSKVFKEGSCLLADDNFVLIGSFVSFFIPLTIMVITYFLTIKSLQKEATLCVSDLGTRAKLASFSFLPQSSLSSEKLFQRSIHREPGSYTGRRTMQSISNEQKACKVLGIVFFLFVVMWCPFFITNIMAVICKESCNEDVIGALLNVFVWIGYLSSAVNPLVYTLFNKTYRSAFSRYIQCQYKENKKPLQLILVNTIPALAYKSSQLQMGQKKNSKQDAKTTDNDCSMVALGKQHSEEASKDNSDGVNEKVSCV

Row | SMILES | inhibition at 0.1 µM [1, 5] | inhibition at 0.1 µM [2] | inhibition at 0.1 µM [3, 5] | inhibition at 0.1 µM [4] | inhibition at 0.1 µM [1] | inhibition at 0.2 µM [2] | further results
1 | CN1CC[C@]23c4c5ccc(O)c4O[C@H]2[C@@H](O)C=C[C@H]3[C@H]1C5 [morphine] | – | – | – | – | – | – | analgesic effect after pretreatment with naloxone (male CD-1 mice): attenuated; latency to tail flick compared to the vehicle (male CD-1 mice): significantly increased; licking response to formalin injection (male C57Bl/6 mice): significantly suppressed
2 | O=C1CN2c3c(cccc3[C@@H]3CN(CCCOc4ccc(Br)cc4)CC[C@@H]32)N1 [compound 30, (6bR,10aS)-8-(3-(4-Bromophenoxy)propyl)-6b,7,8,9,10,10a-hexahydro-1H-pyrido[3′,4′:4,5]pyrrolo-[1,2,3-de]quinoxalin-2(3H)-one] | < 0% | 44% | 8.4% | 70% | – | – | –
3 | O=C1CN2c3c(cccc3[C@@H]3CN(CCCOc4ccc(F)cc4)CC[C@@H]32)N1 [compound 5, (6bR,10aS)-8-(3-(4-Fluorophenoxy)propyl)-6b,7,8,9,10,10a-hexahydro-1H-pyrido[3′,4′:4,5]pyrrolo[1,2,3-de]quinoxalin-2(3H)-one] | – | – | – | – | 44% | – | D1(Ki or (% Inhibition)): % inhibition [1]: 50 (44%); licking response to formalin injection (male C57Bl/6 mice): dose-dependently reduced
4 | O=C1CN2c3c(cccc3[C@@H]3CN(CCCOc4cccc(F)c4)CC[C@@H]32)N1 [compound 37, (6bR,10aS)-8-(3-(3-Fluorophenoxy)propyl)-6b,7,8,9,10,10a-hexahydro-1H-pyrido[3′,4′:4,5]pyrrolo[1,2,3-de]quinoxalin-2(3H)-one] | 32% | 7.7% | 14% | 78% | – | – | –
5 | O=C1CCN2c3c(cccc3[C@@H]3CN(CCCOc4ccc(F)cc4)CC[C@@H]32)N1 [compound 53, (8aS,12aR)-11-(3-(4-Fluorophenoxy)propyl)-6,7,8a,9,10,11,12,12a-octahydro-[1,4]diazepino[3,2,1-hi]pyrido[4,3-b]indol-5(4H)-one] | 14% | – | 24% | 93% | – | 29% | –
6 | O=C1CN2c3c(cccc3[C@@H]3CN(CCCc4n[nH]c5cc(F)ccc45)CC[C@@H]32)N1 [compound 24, (6bR,10aS)-8-(3-(6-Fluoro-1H-indazol-3-yl)propyl)-6b,7,8,9,10,10a-hexahydro-1H-pyrido[3′,4′:4,5]pyrrolo-[1,2,3-de]quinoxalin-2(3H)-one] | – | – | – | – | – | – | Ki [1]: 5.2 nM; Ki [2]: 540 nM; Ki [3]: 15 nM; Ki [4]: 2.6 nM
7 | CC1C(=O)Nc2cccc3c2N1[C@H]1CCN(CCCOc2ccc(F)cc2)C[C@@H]31 (stereo partly drawn) [compound 51, (6bR,10aS)-8-(3-(4-Fluorophenoxy)propyl)-1-methyl-6b,7,8,9,10,10a-hexahydro-1H-pyrido[3′,4′:4,5]-pyrrolo[1,2,3-de]quinoxalin-2(3H)-one] | 26% | < 0% | 49% | 88% | – | – | –
8 | Cc1cc(F)cc(C)c1OCCCN1CC[C@H]2[C@@H](C1)c1cccc3c1N2CC(=O)N3 [compound 43, (6bR,10aS)-8-(3-(4-Fluoro-2,6-dimethylphenoxy)propyl)-6b,7,8,9,10,10a-hexahydro-1H-pyrido[3′,4′:4,5]-pyrrolo[1,2,3-de]quinoxalin-2(3H)-one] | – | – | – | 40% | < 0% | 34% | inhibition at 0.1 µM [3]: < 0%
9 | O=C1CN2c3c(cccc3[C@@H]3CN(CCCOc4ccc(F)c(F)c4)CC[C@@H]32)N1 [compound 39, (6bR,10aS)-8-(3-(3,4-Difluorophenoxy)propyl)-6b,7,8,9,10,10a-hexahydro-1H-pyrido[3′,4′:4,5]pyrrolo-[1,2,3-de]quinoxalin-2(3H)-one] | – | – | – | 71% | 15% | 15% | D1(Ki or (% Inhibition)): % inhibition [1]: 232 (15%); Ki [1]: 232 nM; Ki [2]: 508 nM; SERT (Ki or (% Inhibition)): % inhibition [2]: 508 (15%); D2(Ki or (% Inhibition)): % inhibition [3]: 1620 (7%); Ki [3]: 1620 nM; inhibition at 0.1 µM [3]: 7%; 5-HT2A (Ki or (% Inhibition)): % inhibition [4]: 16.1 (71%); Ki [4]: 16.1 nM; fold reduction of affinity to 5-HT2A receptors [4]: approximately 6 fold
